Reference: patent US4937232A, “Inhibition of protein kinase C by long-chain bases” (priority 1988, dated 1990)
Where two headings read alike, the source gives them in different places. Each block holds one compound with its values, some of them ahead of it.

Legend:
[1] = HL-60 cell growth and viability; format: cell-based, human; details: human, hl-60 cells, 24 h; for viability at 24 h, 2.5 µM: 2.5 μM sphinganine; for viability at 24 h, 5 µM: 5 μM sphinganine
Experimental: (§1) The HL-60 cells (obtained from the American Type Culture Collection, ATCC CCL240) were grown at 37° as a suspension culture in 175 cm^2 Nunc tissue culture flasks (Vangard International, Neptune, N.J.). The cells were subcultured at a density of 0.25×10^6 cells/ml and used between passage numbers 30 and 40.
(§2) Cells were centrifuged at 600 g for 3 min, and added at 1×10^5 cells per well in 12-well culture dishes. Medium, PMA, and long-chain bases (prepared as the 1:1 molar complex with fatty acid-free bovine serum albumin) at the indicated concentrations were added for a total volume of 2.0 ml. After the desired times, the cells in suspension were counted and checked for viability (trypan blue exclusion) with a hemacytometer. The attached cells were quantitated by measuring DNA content according to the method of West et al (Anal. Biochem., 147, 289-295, 1985) and by assaying for acid phosphatase according to the method of Schnyder (J. Exp. Med., 148, 434-445, 1978).

[2] = test system: HL-60 cells; assay: HL-60 cell growth and viability; format: cell-based, human
Experimental: as §1, §2

[3] = test system: neutrophils; assay: Cell association of radiolabeled sphinganine with neutrophils; format: in vitro ADME, human; details: 3, 10, 30 μM plus albumin carrier, 2.5×10^6 cells, 5 min
Experimental: To determine how much inhibitor was actually becoming associated with the cells, radiolabeled sphinganine (3, 10, 30 μM) plus albumin carrier was incubated with neutrophils (2.5×10^6 cells) for 5 min (i.e. a time longer than that needed to achieve inhibition). After washing by centrifugation, the cell-associated radioactivity was measured. Approximately 20% of the added sphinganine became cell-associated. Therefore, because of partitioning between the albumin and the cells, the cellular concentration of sphinganine was considerably less than the total.

[4] = test system: Ca++/calmodulin-dependent protein kinase; assay: Phosphorylation of the 20K protein in platelets; format: cell-based; details: concentrations which completely abolished phosphorylation of the 40K protein
[5] = test system: HL-60 cells; assay: Morphology and marker enzymes (ANA esterase, acid phosphatase) of HL-60 cells on day 3; format: cell-based, human; details: 3 days
Excerpt: Expression of most other signs of HL-60 cell differentiation requires longer time periods after treatment with PMA. For these experiments, the cells were examined on day 3 for adherence and acid phosphatase activity (Table IV) and morphology and the marker enzymes alpha-naptholacetate (ANA) esterase and acid phosphatase (Table V).

[6] = test system: protein kinase C; assay: [3H]PDBu binding to protein kinase C in mixed micelles; parameters: species or system rat; details: 16 and 20 mol % PS
Experimental: [^3 H]PDBu binding was performed as previously described (26).

[7] = biological target: protein kinase C; assay: Mixed micellar protein kinase C activity assay for lysosphingolipids (Table VI); format: biochemical
Experimental: (§3) TABLE VI: Inhibition of protein kinase C activity and phorbol-dibutyrate binding by lysosphingolipids. […] The remaining two columns show the observed effects of the lysosphingolipids of protein kinase C activity and phorbol diester binding in vitro and in human platelets. Lysogangliosides were prepared from their parental gangliosides by hydrolysis in methanolic KOH esentially as described by Neuenhofer et al. in Bioch. 24, 525, 1985. During this preparation, with approximately 90-95% conversion, the N-acetate of N-acetylneuraminic acid is partially hydrolyzed. Fatty acids were partitioned into heptane after acidification of the methanolic reaction mixture. Galactosylsphingosine, glucosylsphingosine, and lactosylsphingosine were prepared as previously described for galactosylsphingosine (Radin, Lipids 9, 358, 1974) Sphingosylphosphorylcholine was prepared by hydrolysis in HCl-butanol (Kaller, Biochemische Zeitschrift 334, 451, 1961). The purity of the lyso derivatives (greater than 90%) was checked by thin layer chromatography (TLC) on silica gel H plates developed in chloroform/methanol/2N NH4 OH (65/35/9) and visualized by ninhydrin reaction for N-lyso compounds, by α-naphthol/sulfuric acid for both gangliosides and lysogangliosides,and by a phospholipid spray for sphingosylphosphorylcholine. Lysosphingolipids were quantitated by reaction of the amine group with trinitrobenzenesulfonate. Gangliosides and lysosphingolipids were also quantitated by reaction with anthrone. The lysosphingolipids were then studied for their effect on protein kinase C activity. Protein kinase C was purified to near homogeneity by the method of Wolf et al. (J. Biol. Chem. 260, 15718, 1985), and activity was measured using a mixed micellar assay (described herein). Lysosphingolipids were added directly in aqueous solution, and allowed to equilibrate with the Triton X-100 (0.3% w/v) mixed micelles containing 6 mol % phosphatidylserine and 2 mol % dioleoylglycerol. […] Phorbol-dibutyrate binding was measured in a mixed micellar assay. Lysosphingolipids inhibited phorbol-dibutyrate binding to protein kinase C in the presence of Triton X-100 mixed micelles containing 20 mol % phosphatidylserine. […] The difference is related to the higher concentration of phosphatidylserine used in the binding assay, as both activity and binding show a high cooperative dependence on phosphatidylserine, which modulates the inhibition by lysosphingolipids. Phorbol-dibutyrate binding to human platelets and 40 kDa phosphorylation in platelets were carried out as described above. Lysosphingolipids inhibited phorbol dibutyrate binding to human platelets at concentrations in the 10-50 μM range. Inhibition of 40 kDa phosphorylation occurred over the same concentration range.

[8] = biological target: protein kinase C; assay: Phorbol-dibutyrate binding to protein kinase C, mixed micellar assay (Table VI); details: Triton X-100 mixed micelles, 20 mol % phosphatidylserine
Experimental: as §3

[9] = 8 nM PMA, read-out: Percent viability of suspended cells
[10] = No PMA, read-out: Percent viability of suspended cells

- added sphinganine that became cell-associated [3]: Approximately 20%
Structure (SMILES): CCCCCCCCCCCCCCC[C@@H](O)[C@@H](N)CO (relative stereo) [Sphinganine, erythro-dihydrosphingosine]
- viability at 24 h, 1 µM ([1]; 8 nM PMA + 1 μM sphinganine, read-out: % Viability): 93%
- viability at 24 h, 1 µM ([1]; 8 nM PMA, 1 μM sphinganine, read-out: Percent viability of suspended cells): 87%
- viability at 24 h, 2.5 µM [1, 9]: 94%
- viability at 24 h, 5 µM [1, 9]: 80%
- viability at 24 h, 1 µM ([1]; 1 μM sphinganine, no PMA, read-out: % Viability): 95%
- viability at 24 h, 1 µM ([1]; No PMA, 1 μM sphinganine, read-out: Percent viability of suspended cells): 90%
- viability at 24 h, 2.5 µM [1, 10]: 98%
- viability at 24 h, 5 µM [1, 10]: 87%
- HL-60 cell growth (doubling) ([2]; 1 μM sphinganine, first 24 h): not changed
- HL-60 cytotoxicity ([2]; 5 μM sphinganine, second day): significant cell death
- HL-60 cell growth ([2]; 1 and 2.5 μM sphinganine, second day): inhibited growth without cytotoxicity
- HL-60 cell growth ([2]; 2.5 and 5 μM sphinganine, first 24 h): limited growth
- inhibition of phosphorylation of the 20K protein in platelets [4]: lack of inhibition
- Acid phosphatase ([5]; 8 nM PMA, adherent cells, 1 μM sphinganine): 0.64 nmol/h/105 cells
- Acid phosphatase ([5]; 8 nM PMA, adherent cells, 2.5 μM sphinganine): 0.60 nmol/h/105 cells
- Acid phosphatase ([5]; 8 nM PMA, adherent cells, 5 μM sphinganine): 0.64 nmol/h/105 cells
- Acid phosphatase ([5]; 8 nM PMA, suspended cells, 1 μM sphinganine): 0.19 nmol/h/105 cells
- Acid phosphatase ([5]; 8 nM PMA, suspended cells, 2.5 μM sphinganine): 0.12 nmol/h/105 cells
- Acid phosphatase ([5]; 8 nM PMA, suspended cells, 5 μM sphinganine): 0.06 nmol/h/105 cells
- Acid phosphatase ([5]; No PMA, suspended cells, 1 μM sphinganine): 0.25 nmol/h/105 cells
- Acid phosphatase ([5]; No PMA, suspended cells, 2.5 μM sphinganine): 0.22 nmol/h/105 cells
- Acid phosphatase ([5]; No PMA, suspended cells, 5 μM sphinganine): 0.16 nmol/h/105 cells

Structure (SMILES): CCCCCCCCCCCCC/C=C/[C@@H](O)[C@@H](N)CO [sphingosine]
- inhibition of phorbol-ester binding to mixed micelles [6]: inhibited
- Inhibition of Protein Kinase C, concentration giving 50% inhibition, (mol %) ([7]; 0.3% Triton X-100, 1 mol % = 43 μM): 1.9 mol %
- IC50 ([7]; 0.3% Triton X-100 mixed micelles, 6 mol % phosphatidylserine, 2 mol % dioleoylglycerol, read-out: Inhibition of Protein Kinase C, concentration giving 50% inhibition): 80 µM
- Inhibition of [3H]PDBu Binding to Protein Kinase, (mol %) [8]: 9.3 mol %
- IC50 ([8]; read-out: Inhibition of [3H]PDBu Binding to Protein Kinase): 400 µM
